Source: PubChem BioAssay (NCI)
Several values for one entry are separate records, joined by “and”; a condition that tells them apart may be missing. Equal entries are not always repeated.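 96-well plates; 48 h exposure; 5 concentrations. Endpoints by linear interpolation between flanking doses. Not reached: highest tested concentration assigned. GI50 marks 50% less growth. Definition used: TGI = concentration required for complete inhibition of growth.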

How the values were obtained:
Assay in all cases: DTP human tumour cell line panel, 48 h
[1] = test system: A549 NSCLC
[2] = test system: OVCAR-8 ovarian
[3] = test system: A498 renal
[4] = test system: SNB-75 CNS
[5] = test system: HCT-116 colon
[6] = test system: U251 CNS
[7] = test system: T-47D breast
[8] = test system: RXF 393 renal
[9] = test system: UACC-257 melanoma
[10] = test system: NCI/ADR-RES ovarian

SMILES	TGI [1]	TGI [2]	TGI [3]	TGI [4]	TGI [5]	TGI [6]	TGI [7]	TGI [8]	TGI [9]	TGI [10]	GI50 [1]	GI50 [2]	GI50 [3]	GI50 [4]	GI50 [5]	GI50 [6]	GI50 [7]	GI50 [8]	GI50 [9]	GI50 [10]
c1ccc(-c2cc(C3CO3)c3ccccc3n2)cc1 (stereo not drawn)	40.4 µM	43.2 µM	39.8 µM	62.6 µM	30.2 µM	30 µM	65.8 µM	28.3 µM	42.7 µM	57.6 µM	–	–	–	–	–	–	–	–	–	–
CCOC(=O)c1c2c(n(Cc3ccccc3)c1C)-c1ccccc1C(=O)C2=O	36.4 µM	43.7 µM	60 µM	24.7 µM	25.2 µM	20.8 µM	31.8 µM	36.6 µM	69.2 µM	27.4 µM	16.8 µM	14.9 µM	24.6 µM	10.7 µM	11.6 µM	8.75 µM	13.2 µM	17.1 µM	28.4 µM	9.42 µM
Cc1noc(C)c1-c1cc(O)cc(C(O)c2ccccc2)c1 (stereo not drawn)	> 100 µM	> 100 µM	20.3 µM	> 100 µM	> 100 µM	> 100 µM	> 100 µM	> 100 µM	> 100 µM	> 100 µM	22.4 µM	8.33 µM	2.6 µM	0.423 µM	7.08 µM	15 µM	7.7 µM	4.58 µM	4.66 µM	6.32 µM
COc1ccc2c(c1)C(=O)C(=O)c1cc(O)c(OC)c(OC)c1-2	12.1 µM and 3.89 µM	1.6 µM and 2.98 µM	10.5 µM and 12.9 µM	2.85 µM and 3.06 µM	1.6 µM and 3.09 µM	1.64 µM and 3.16 µM	2.81 µM and 3.13 µM	1.65 µM and 3.63 µM	1.61 µM and 2.89 µM	2.41 µM and 5.22 µM	1.96 µM	1.62 µM	5.07 µM	1.69 µM	1.72 µM	1.78 µM	1.75 µM	1.56 µM	1.55 µM	1.84 µM
O=C(Nc1cccc(Oc2nnc(Cl)c3ccccc23)c1)Nc1ccc(Cl)c(C(F)(F)F)c1	8.3 µM	9.5 µM	1.7 µM	5.63 µM	3.51 µM	3.93 µM	2.24 µM	3.87 µM	3.37 µM	9.95 µM	1.1 µM	1.3 µM	0.275 µM	1.61 µM	1.05 µM	1.31 µM	0.384 µM	1.17 µM	0.952 µM	0.926 µM
CN1CCN(c2ccc3nc(-c4c(N)c5c(F)cccc5[nH]c4=O)[nH]c3c2)CC1	2.15 µM and > 3.74 µM and 3.86 µM	3.21 µM and > 5.17 µM and 12.5 µM	–	2.64 µM and 8.04 µM and 5.68 µM	1.93 µM and 4.35 µM and 2.4 µM	2.45 µM and > 3.32 µM and 3.49 µM	10.1 µM and > 6.23 µM and 31.9 µM	1.19 µM and 0.632 µM and 1.18 µM	3.26 µM and 2.39 µM and 8.32 µM	7.18 µM and > 10 µM and 13 µM	0.594 µM and 0.451 µM and 0.674 µM	1.26 µM and 0.874 µM and 1.67 µM	0.224 µM and 0.144 µM and 0.135 µM	0.695 µM and 0.399 µM and 0.994 µM	0.619 µM and 0.466 µM and 0.992 µM	1.02 µM and 0.652 µM and 0.78 µM	4.04 µM and 12 µM	0.216 µM and 0.212 µM and 0.282 µM	1.69 µM and 0.83 µM and 2.54 µM	1.77 µM and 2.64 µM and 2.47 µM
COc1ccc2c(c1)C(=O)c1c-2c(Nc2ccc(C(C)=O)cc2)nc2ccccc12	> 100 µM	64.9 µM	> 100 µM	> 100 µM	19.2 µM	40.6 µM	> 100 µM	9.2 µM	> 100 µM	> 100 µM	37.2 µM	18 µM	35.2 µM	26.1 µM	4.17 µM	13.5 µM	77.2 µM	2.54 µM	91.1 µM	41.7 µM
O=C(CN1CCN(c2ccc(Cl)cc2)CC1)N1CCN(c2nnc(-c3ccc(Cl)cc3)c(-c3ccc(Cl)cc3)n2)CC1	> 100 µM	> 100 µM	> 100 µM	35.5 µM	> 100 µM	> 100 µM	> 100 µM	77.3 µM	> 100 µM	> 100 µM	> 100 µM	> 100 µM	43.1 µM	15.1 µM	7.84 µM	41.7 µM	10.8 µM	23.8 µM	> 100 µM	34 µM
CC(C)(C)c1[nH]cnc1/C=c1\[nH]c(=O)/c(=C/c2ccccc2)[nH]c1=O	41.5 µM	50.8 µM	0.51 µM	44 µM	15.4 µM	43.9 µM	30.9 µM	56.8 µM	22.6 µM	> 100 µM	0.0181 µM	< 0.0125 µM	< 0.01 µM	< 0.01 µM	< 0.01 µM	< 0.01 µM	< 0.0592 µM	< 0.01 µM	6.32 µM	< 0.01 µM
CN(C)c1ncnc2c1nnn2C1OC(CO)C(O)C1O (stereo not drawn)	> 100 µM	> 100 µM	> 100 µM	> 100 µM	> 100 µM	> 100 µM	2.81 µM	> 100 µM	> 100 µM	> 100 µM	3.53 µM	0.0759 µM	0.442 µM	0.106 µM	0.431 µM	1.6 µM	0.141 µM	0.386 µM	0.515 µM	0.233 µM
CC1CCN(CCCCCOc2ccc3oc4cc(Cl)ccc4c(=O)c3c2)CC1	14.4 µM	16 µM	12.7 µM	13 µM	7.86 µM	12.4 µM	16.4 µM	12.7 µM	3.22 µM	21.8 µM	7.49 µM	7.95 µM	5.97 µM	6.59 µM	2.42 µM	5.69 µM	6.86 µM	5.75 µM	1.33 µM	8.14 µM
Cc1ccc(C)c(NC(=O)NCc2ccc(Cl)cc2)c1	> 100 µM	> 100 µM	88.4 µM	6.26 µM	> 100 µM	> 100 µM	> 100 µM	28.6 µM	> 100 µM	> 100 µM	–	–	–	–	–	–	–	–	–	–
CCOC(=O)/C=C/c1cc2cc(-c3csc4ccccc34)ccc2[nH]1	18.1 µM	13.7 µM	24.6 µM	20.8 µM	31.4 µM	18.8 µM	18 µM	–	25.2 µM	55.3 µM	4.39 µM	3.79 µM	12 µM	6.14 µM	2.96 µM	5.49 µM	4.45 µM	3.86 µM	12.6 µM	10 µM
